Like-named read-outs stand apart in the source and are kept apart here.
Columns and labels:
[1] = biological target: His-tagged protein corresponding to amino acids 575-869 of human Tyk2 (Homo sapiens (Human), UniProt P29597); test: Probe displacement assay (scintillation proximity, radiolabeled probe); assay type: binding; conditions: 2.5 nM Tyk2 (575-869), 40 nM [3H] probe, 30 minutes at room temperature
Protocol: The probe displacement assay is conducted as follows: In a […], test compounds along with recombinantly expressed His-tagged protein corresponding to amino acids 575-869 of human Tyk2 (sequence shown below) at 2.5 nM, 40 nM ((R)—N-(1-(3-(8-methyl-5-(methylamino)-8H-imidazo[4,5-d]thiazolo[5,4-b]pyridin-2-yl)phenyl)ethyl)-2-([^3H]methylsulfonyl)benzamide) (preparation described below) and 80 μg/mL Copper His-Tag scintillation proximity assay beads (Perkin Elmer, Catalog #RPNQ0095) in 50 mM HEPES, pH 7.5, containing 100 μg/mL bovine serum albumin and 5% DMSO were incubated for 30 minutes at room temperature.
Protein Sequence of recombinant Hig-tagged Tyk2 (575-869):
The preparation of radiolabeled probe, (R)—N-(1-(3-(8-methyl-5-(methylamino)-8H-imidazo[4,5-d]thiazolo[5,4-b]pyridin-2-yl)phenyl)ethyl)-2-([^3H]methylsulfonyl)benzamide, was performed as described below.

[2] = system: IL-23 stimulated Kit225 T cells (STAT-dependent luciferase reporter); test: Kit225 T cell assay, IL-23-stimulated STAT-dependent luciferase reporter; assay type: cell-based, human; conditions: 20 ng/mL human recombinant IL-23, 5-6 hours, read-out: IL-23 Kit225 Reporter (IC50)
Protocol: (§1) Kit225 T cells with a stably-integrated STAT-dependent luciferase reporter were plated in RPMI (Gibco) containing 10% heat-inactivated FBS (Gibco) and 100 U/mL PenStrep (Gibco). The cells were then stimulated with either 20 ng/mL human recombinant IL-23 or 200 U/mL human recombinant IFNα (PBL InterferonSource) for 5-6 hours. Luciferase expression was measured using the STEADY-GLO® Luciferase Assay System (Promega) according to the manufacturer's instructions. Inhibition data were calculated by comparison to no inhibitor control wells for 0% inhibition and non-stimulated control wells for 100% inhibition.

[3] = system: IFNα stimulated Kit225 T cells (STAT-dependent luciferase reporter); test: Kit225 T cell assay, IFNα-stimulated STAT-dependent luciferase reporter; assay type: cell-based, human; conditions: 200 U/mL human recombinant IFNα, 5-6 hours, read-out: IFNα Kit225 Reporter (IC50)
Protocol: as §1

Sequence of His-tagged protein corresponding to amino acids 575-869 of human Tyk2 (P29597 other isoform, or with tags, fused parts or gaps): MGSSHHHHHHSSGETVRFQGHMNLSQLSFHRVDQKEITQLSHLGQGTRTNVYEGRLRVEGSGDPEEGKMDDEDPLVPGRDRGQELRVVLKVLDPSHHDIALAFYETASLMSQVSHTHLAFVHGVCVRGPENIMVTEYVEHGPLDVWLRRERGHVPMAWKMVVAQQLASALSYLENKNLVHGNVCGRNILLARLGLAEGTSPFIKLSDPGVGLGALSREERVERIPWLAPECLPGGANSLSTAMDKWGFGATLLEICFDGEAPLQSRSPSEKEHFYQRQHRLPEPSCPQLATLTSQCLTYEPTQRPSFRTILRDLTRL

SMILES | EC50 [1] [nM] | IC50 [2] [nM] | IC50 [3] [nM] | IC50 ([2]; KIT225) [nM] | IC50 ([3]; KIT225) [nM]
CNC(=O)c1nnc(Nc2cc(C)nc(C)n2)cc1Nc1cccc(-c2ncn(C)n2)c1OC [Example 108] | 1.46 | 8.49 | 3.54 |  | 
CNC(=O)c1nnc(Nc2cc(C)c(F)cn2)cc1Nc1cccc(-c2n[nH]c(C)n2)c1OC [Example 142] | 6.95 | 6.59 | 4.3 |  | 
CNC(=O)c1nnc(Nc2ccccn2)cc1Nc1cccc(-c2ncn(C)n2)c1OC [Example 76] | 6.17 | 1.99 | 3.49 |  | 
CNC(=O)c1nnc(Nc2ccccn2)cc1Nc1cccc(-c2nnc(C)o2)c1OC [Example 151] | 7.22 | 20 | 20 |  | 
CNC(=O)c1nnc(Nc2cc(COC)ccn2)cc1Nc1ccccc1S(C)(=O)=O [Example 51] | 7.19 | 40 | 20 |  | 
CNC(=O)c1nnc(Nc2ccccn2)cc1Nc1cccc(-c2nc(C)cs2)c1OC [Example 73] | 5.21 | 80 | 50 |  | 
CNC(=O)c1nnc(NC(=O)C2CC2)cc1Nc1cccc(-c2cc(C)no2)c1OC [Example 194] | 80 | 630 | 410 |  | 
CNC(=O)c1nnc(NC(=O)C2CC2)cc1Nc1ccccc1OC [Example 125] | 110 | 170 | 430 |  | 
CNC(=O)c1nnc(Nc2ccc(CO)cn2)cc1Nc1cccc(-c2ncn(C)n2)c1OC [Example 102] | 1.59 | 40 | 30 |  | 
CNC(=O)c1nnc(NC(=O)C2CC2)cc1Nc1cccc(-c2nnc(C)s2)c1OC [Example 154] | 90 | 590 | 430 |  | 
CNC(=O)c1nnc(Nc2cc(OC(C)C)ncn2)cc1Nc1ccccc1S(C)(=O)=O [Example 45] |  | 420 | 310 |  | 
CNC(=O)c1nnc(Nc2cc(CO)ccn2)cc1Nc1cccc(-c2ncn(C)n2)c1OC [Example 110] |  | 80 | 20 |  | 
CNC(=O)c1nnc(NC(=O)C2CC2)cc1Nc1cccc(-c2nc(C)cs2)c1OC [Example 95] |  | 100 | 20 |  | 
CNC(=O)c1nnc(NC(=O)C2CC2F)cc1Nc1ccccc1S(C)(=O)=O (centres unmarked) [Example 28] |  | 420 | 610 |  | 
CNC(=O)c1nnc(Nc2ccncn2)cc1Nc1cccc(-c2ncccn2)c1OC [Example 118] |  | 30 | 20 |  | 
CNC(=O)c1nnc(NC(=O)C2CC2)cc1Nc1cccc(-c2ncn(C)n2)c1OC [Example 52] |  | 10 | 9.21 |  | 
CNC(=O)c1nnc(Nc2ccc(F)cn2)cc1Nc1cccc(-c2ncccn2)c1OC [Example 71] |  | 10 | 5.99 |  | 
CNC(=O)c1nnc(Nc2cc(C)c(F)cn2)cc1Nc1cccc(-c2ncnn2C)c1OC [Example 180] |  | 60 | 20 |  | 
[2H]C([2H])([2H])NC(=O)c1nnc(NC(=O)C2CC2)cc1Nc1cccc(-c2cn[nH]c2)c1OC [Example 185] |  |  |  | 280 | 120
CNC(=O)c1nnc(NC(=O)C2CC2)cc1Nc1cccc(-c2n[nH]c(C)n2)c1OC [Example 141] |  | 40 | 20 |  | 
CNC(=O)c1nnc(NC(=O)C2CC2)cc1Nc1ccccc1S(C)(=O)=O [Example 17] |  | 570 | 360 |  | 
CNC(=O)c1nnc(Nc2cc(C)ccn2)cc1Nc1ccccc1S(C)(=O)=O [Example 14] |  | 10 | 10 |  | 
CNC(=O)c1nnc(Nc2ccc(F)cn2)cc1Nc1cccc(-c2cnccn2)c1OC [Example 74] |  | 20 | 5.15 |  | 
[2H]C([2H])([2H])NC(=O)c1nnc(Nc2ccccn2)cc1Nc1cccc(-c2nc(C)no2)c1OC [Example 163, 4-((2-methoxy-3-(3-methyl-1,2,4-oxadiazol-5-yl)phenyl)amino)-N-trideutero-methyl-6-(pyridin-2-ylamino)pyridazine-3-carboxamide] |  |  |  | 40 | 30
CNC(=O)c1nnc(Nc2cc(C)n(C)n2)cc1Nc1cccc(-c2c[nH]nn2)c1OC [Example 193] |  | 30 | 40 |  | 
CNC(=O)c1nnc(Nc2cc(C)nc(COC)n2)cc1Nc1ccccc1S(C)(=O)=O [Example 41] |  | 160 | 190 |  | 
CNC(=O)c1nnc(Nc2ccccn2)cc1Nc1cccc(-c2nnc[nH]2)c1SC [Example 204, N-methyl-4-((2-(methylthio)-3-(4H-1,2,4-triazol-3-yl)phenyl)amino)-6-(pyridin-2-ylamino)pyridazine-3-carboxamide] |  |  |  | 70 | 20

SMILES | EC50 [1] [nM] | IC50 [2] [nM] | IC50 [3] [nM] | IC50 ([2]; KIT225) [nM] | IC50 ([3]; KIT225) [nM]
CNC(=O)c1nnc(Nc2cc(C#N)ccn2)cc1Nc1ccccc1S(C)(=O)=O [Example 11] |  | 100 | 60 |  | 
CNC(=O)c1nnc(Nc2cc(C)nc(C)n2)cc1Nc1cccc(-c2cnn(C)c2)c1OC [Example 57] |  | 6.01 | 6.48 |  | 
CNC(=O)c1nnc(Nc2cc(C(F)(F)F)ccn2)cc1Nc1ccccc1S(C)(=O)=O [Example 35] |  | 210 | 40 |  | 
CNC(=O)c1nnc(Nc2ccccn2)cc1Nc1cccc(C(=O)NCCCO)c1OC [Example 170] |  | 230 | 390 |  | 
[2H]C([2H])([2H])NC(=O)c1nnc(NC(=O)C2CC2)cc1Nc1cccc(-c2c[nH]nn2)c1OC [Example 192] |  |  |  | 40 | 30
CNC(=O)c1nnc(Nc2ccc(C(=O)OC)cn2)cc1Nc1ccccc1S(C)(=O)=O [Example 32] |  | 70 | 50 |  | 
CNC(=O)c1nnc(Nc2cc(C)nc(C)n2)cc1Nc1cccc(-c2nc(C)cs2)c1OC [Example 97] |  | 10 | 20 |  | 
CNC(=O)c1nnc(Nc2ccc(C)nn2)cc1Nc1cccc(-c2ncccn2)c1OC [Example 122] |  | 30 | 3.2 |  | 
CNC(=O)c1nnc(Nc2cc(CO)ccn2)cc1Nc1ccccc1S(C)(=O)=O [Example 34] |  | 190 | 170 |  | 
CNC(=O)c1nnc(Nc2cc(C)ccn2)cc1Nc1ccccc1S(C)(=O)=O [Example 23] |  | 100 | 40 |  | 
CCc1cc(Nc2cc(Nc3ccccc3S(C)(=O)=O)c(C(=O)NC)nn2)ncn1 [Example 46] |  | 200 | 60 |  | 
CNC(=O)c1nnc(Nc2cc(C)n(C)n2)cc1Nc1cccc(-c2ncn(C)n2)c1OC [Example 60] |  | 10 | 3.38 |  | 
[2H]C([2H])([2H])NC(=O)c1nnc(NC(=O)C2CC2)cc1Nc1cccc(-c2nc(C)n(C)n2)c1OC [Example 181] |  |  |  | 40 | 20
CNC(=O)c1nnc(Nc2cc(C)c(F)cn2)cc1Nc1cccc(-c2cnn(C)c2)c1OC [Example 59] |  | 20 | 20 |  | 
CNC(=O)c1nnc(Nc2cc(C)nc(C)n2)cc1Nc1cccc(-c2cnn(C)n2)c1OC [Example 137] |  | 10 | 6.92 |  | 
CNC(=O)c1nnc(NC(=O)C2CC2)cc1Nc1cccc(-c2ncc(C)s2)c1OC [Example 101] |  | 100 | 60 |  | 
CNC(=O)c1nnc(Nc2cc(F)ccn2)cc1Nc1ccccc1S(C)(=O)=O [Example 9] |  | 60 | 90 |  | 
CNC(=O)c1nnc(Nc2cc(N3CCN(CCO)CC3)nc(C)n2)cc1Nc1cccc(-c2ncn(C)n2)c1OC [Example 99] |  | 60 | 20 |  | 
CNC(=O)c1nnc(Nc2ccccn2)cc1Nc1cccc(C(=O)NCCC(C)(C)O)c1OC [Example 168] |  | 100 | 80 |  | 
CNC(=O)c1nnc(Nc2cc(C)nc(C)n2)cc1Nc1cccc(-c2nnn(C)n2)c1OC [Example 144] |  | 10 | 3.15 |  | 
CNC(=O)c1nnc(Nc2cc(C)n(C)n2)cc1Nc1cccc(-c2cscn2)c1OC [Example 131] |  | 20 | 20 |  | 
CCc1cc(Nc2cc(Nc3ccccc3S(C)(=O)=O)c(C(=O)NC)nn2)nc(C)n1 [Example 47] |  | 50 | 20 |  | 
CNC(=O)c1nnc(Nc2cc(OC)ncn2)cc1Nc1cccc(-c2ncn(C)n2)c1OC [Example 88] |  | 20 | 9.97 |  | 
CNC(=O)c1nnc(Nc2ccccn2)cc1Nc1cccc(-c2noc(C)n2)c1OC [Example 206] |  |  |  | 4.38 | 0.712
CNC(=O)c1nnc(Nc2ccccn2)cc1Nc1cccc(-c2ncccn2)c1OC [Example 91] |  | 20 | 3.62 |  | 
CNC(=O)c1nnc(NC(=O)C2CC2)cc1Nc1cccc(-c2nnc(C)o2)c1OC [Example 149] |  | 170 | 50 |  | 

Source: patent publication US11021475B2, “Amide-substituted heterocyclic compounds useful as modulators of IL-12, IL-23 and/or IFN alpha responses” (Bristol-Myers Squibb Company, priority 2012, dated 2021)
